The source of these data is patent publication US20010025028A1, “Methods of inhibiting bone resorption” (Merck & Co., Inc., priority 1998, published 2001).

For assay [1], the system named is co-culture of mouse bone marrow cells and MB 1.8 mouse osteoblasts. As to the kind of experiment: Osteoclastogenesis in murine co-cultures of bone marrow cells and MB 1.8 osteoblasts (TRAP fluorescence or counting of osteoclast-like cells). It is filed as cell-based. The following applies: FIG. 1.
The test system of a further assay is bone marrow cultures. The following applies: cited from earlier work.

`CC1(O)CCOC(=O)C1` (racemic) [D,L-mevalonic acid lactone]: the “reversal of lovastatin inhibition of osteoclastogenesis (TRAP fluorescence assay)” value in assay [1] (D,L-mevalonic acid lactone 1 mM together with 1 or 10 μM lovastatin, added at days 5 and 6, read on day 7) is reported as “reversal”. With `CC[C@H](C)C(=O)O[C@H]1C[C@@H](C)C=C2C=C[C@H](C)[C@H](CC[C@@H]3C[C@@H](O)CC(=O)O3)[C@H]21` [lovastatin], the “inhibition of osteoclastogenesis (tartrate resistant acid phosphatase activity, percent activity relative to no treatment)” value in assay [1] (lovastatin 1 and 10 μM added at days 5 and 6, TRAP activity measured on day 7) is “inhibition of osteoclastogenesis”.

With `C[C@@](O)(CCO)CC(=O)O` [mevalonic acid], in the assay with bone marrow cultures (added to mevastatin), the “effect of added mevalonic acid on the inhibition of osteoclastogenesis by mevastatin” value is given as “partially restored”. Consider `CC[C@H](C)C(=O)O[C@H]1CCC=C2C=C[C@H](C)[C@H](CC[C@@H]3C[C@@H](O)CC(=O)O3)[C@H]21` [mevastatin], for which, in the assay with bone marrow cultures, the “inhibition of in vitro osteoclastogenesis formation” value is on record as “inhibit in vitro osteoclastogenesis formation”.
